Measurements taken from patent publication US10537580B2, “Azocane and azonane derivatives and methods of treating hepatitis B infections” (Novira Therapeutics, Inc., priority 2015, dated 2020).

Key:
[1] = target: mutant C150 HBV capsid protein (C150Bo) (Hepatitis B virus genotype D subtype adw, UniProt P03147, C107A/C48A/C61A/R150C); experiment: HBV assembly assay (fluorescence quenching in vitro capsid assembly); assay type: biochemical; settings: at about 10 μM; 50 mM Hepes pH 7.5, 150 mM NaCl, 1 hour at room temperature
[2] = test system: HBV replication in HepG2-2.2.15 cells; experiment: Inhibition of HBV replication dot-blot assay; assay type: cell-based; settings: at 10 μM, six days, reduction in HBV DNA levels
Experimental: Compounds active in the HBV assembly assay are tested for their activity and toxicity in cellular assay. In the first anti-viral assay, the ability of compounds to inhibit HBV replication in an HBV-producing hepatoma cell line using the dot-blot method is evaluated.
Briefly, confluent monolayers of HepG2-2.2.15 cells are incubated with complete medium containing various concentrations of a test compound. Three days later, the culture medium is replaced with fresh medium containing the appropriately diluted test compound. Six days following the initial administration of the test compound, the cell culture supernatant is collected, and cell lysis is performed. The samples are applied onto Nylos membranes and DNA is immobilized to the membrane by UV cross-linking. After pre-hybridization, the HBV probe is added and the hybridization is performed overnight. The membranes are exposed to the Kodak films; antiviral activity is calculated from the reduction in HBV DNA levels (EC50). The EC50 for antiviral activity is calculated from the dose response curves of active compounds. Assay performance over time is monitored by the use of the standard positive control compounds ETV, BAY 41-4109, and HAP-1.
Selected compounds were tested for their activity and toxicity in cellular assay. In the first anti-viral assay, the ability of compounds to inhibit HBV replication in an HBV-producing hepatoma cell line using the dot-blot method was evaluated.
Confluent monolayers of HepG2-2.2.15 cells were incubated with complete medium containing various concentrations of a test compound. Three days later, the culture medium was replaced with fresh medium containing the appropriately diluted test compound. Six days following the initial administration of the test compound, the cell culture supernatant was collected, and cell lysis was performed. The samples were applied onto Nylos membranes and DNA was immobilized to the membrane by UV cross-linking. After pre-hybridization, the HBV probe was added and the hybridization was performed overnight. The membranes were exposed to the Kodak films; antiviral activity was calculated from the reduction in HBV DNA levels (EC50). The EC50 for antiviral activity was calculated from the dose response curves of active compounds. Assay performance over time was monitored by the use of the standard positive control compounds ETV, BAY 41-4109, and HAP-1.

Sequence of mutant C150 HBV capsid protein (C150Bo) (P03147 whole entry C107A/C48A/C61A/R150C, looked up): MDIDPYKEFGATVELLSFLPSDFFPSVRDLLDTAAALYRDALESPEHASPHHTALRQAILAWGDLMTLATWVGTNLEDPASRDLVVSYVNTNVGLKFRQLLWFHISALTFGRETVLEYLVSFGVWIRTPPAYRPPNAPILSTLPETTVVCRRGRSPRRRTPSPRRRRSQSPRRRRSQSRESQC

SMILES	Activity (HBV assembly assay) [1]	Activity in dot-blot-assay [2]
O=C(Nc1ccc(F)c(Cl)c1)c1ccc(F)c(S(=O)(=O)N2CCOCC(O)CC2)c1 (stereo not shown) [Compound 2040_E2]	+ (‘+’ indicates >50% activity at about 10 μM)	+ (‘+’ indicates >50% activity at 10 μM)
O=C(Nc1cc(F)c(F)c(F)c1)c1ccc(F)c(S(=O)(=O)N2CCCCCCCC2)c1 [Compound 2435]	+ (‘+’ indicates >50% activity at about 10 μM)	+ (‘+’ indicates >50% activity at 10 μM)
O=C(Nc1ccc(F)c(Cl)c1)c1ccc(F)c(S(=O)(=O)N2CCCCC(O)C(F)C2)c1 (stereo not shown) [Compound 2285_D2]	+ (‘+’ indicates >50% activity at about 10 μM)	+ (‘+’ indicates >50% activity at 10 μM)
O=C(Nc1ccc(F)c(Cl)c1)c1ccc(F)c(S(=O)(=O)N2CCOCCC(O)C2)c1 (stereo not shown) [Compound 2039]	+ (‘+’ indicates >50% activity at about 10 μM)	+ (‘+’ indicates >50% activity at 10 μM)
O=C(Nc1ccc(F)c(Cl)c1)c1ccc(F)c(S(=O)(=O)N2CCOCC(O)CC2)c1 (stereo not shown) [Compound 2040_E1]	+ (‘+’ indicates >50% activity at about 10 μM)	+ (‘+’ indicates >50% activity at 10 μM)
O=C(Nc1ccc(F)c(Cl)c1)c1ccc(F)c(S(=O)(=O)N2CCCCC(O)C(F)C2)c1 (stereo not shown) [Compound 2285_D1]	+ (‘+’ indicates >50% activity at about 10 μM)	+ (‘+’ indicates >50% activity at 10 μM)
O=C(Nc1cc(F)c(F)c(F)c1)c1ccc(F)c(S(=O)(=O)N2CCOCC(O)CC2)c1 (stereo not shown) [Compound 2520]	+ (‘+’ indicates >50% activity at about 10 μM)	+ (‘+’ indicates >50% activity at 10 μM)
O=C(Nc1ccc(F)c(Cl)c1)c1ccc(F)c(S(=O)(=O)N2CCCCCCCC2)c1 [Compound 2436]	+ (‘+’ indicates >50% activity at about 10 μM)	+ (‘+’ indicates >50% activity at 10 μM)
